Laboratory results published in patent US20230086703A1, “N-(4-(5-chloropyridin-3-yl)phenyl)-2-(2-(cyclopropanesulfonamido)pyrimidin-4-yl) butanamide derivatives and related compounds as human CTPS1 inhibitors for the treatment of proliferative diseases” (Step Pharma S.A.S., priority 2019, published 2023).

Biological target: T1, human CTPS1 (Homo sapiens, UniProt P17812)
T1 construct: FLAG (with GG linker); His8 (with GG linker); purchased Proteros biostructures GmbH
T1 sequence (P17812 1-591): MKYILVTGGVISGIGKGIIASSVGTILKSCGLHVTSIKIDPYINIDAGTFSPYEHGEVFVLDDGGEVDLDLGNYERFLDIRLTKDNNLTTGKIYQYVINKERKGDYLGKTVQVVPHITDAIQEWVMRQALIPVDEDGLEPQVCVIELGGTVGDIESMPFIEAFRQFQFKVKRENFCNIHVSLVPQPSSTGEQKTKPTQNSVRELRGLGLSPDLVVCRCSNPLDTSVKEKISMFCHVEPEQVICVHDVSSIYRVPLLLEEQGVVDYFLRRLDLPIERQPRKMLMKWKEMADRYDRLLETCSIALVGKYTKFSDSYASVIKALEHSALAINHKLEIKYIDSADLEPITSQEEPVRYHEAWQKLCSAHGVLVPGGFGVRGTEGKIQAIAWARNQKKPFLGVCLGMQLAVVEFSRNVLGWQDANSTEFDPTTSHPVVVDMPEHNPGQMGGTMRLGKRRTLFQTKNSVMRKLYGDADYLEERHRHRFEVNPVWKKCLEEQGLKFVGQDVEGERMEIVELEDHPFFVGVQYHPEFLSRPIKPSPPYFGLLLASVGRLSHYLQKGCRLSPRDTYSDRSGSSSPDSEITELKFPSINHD
Assay: RapidFire/MS-based enzyme selectivity assay (human CTPS1 versus CTPS2), CTPS1 isoform
Assay type: biochemical
Conditions: RapidFire/MS IC50 values of CTPS1 and CTPS2; Table 15
Protocol: Human CTPS1 Versus CTPS2 Selectivity Assessment by RapidFire/MS Analysis.
The enzyme inhibitory activities against each target isoform of interest may be determined for the compounds of the invention using an optimised RapidFire high-throughput mass spectrometry (RF/MS) assay format. RF/MS assays for both human CTPS1 and CTPS2 may be performed in assay buffer consisting of 50 mM HEPES (Merck), 20 mM MgCl2, 5 mM KCl, 1 mM DTT, 0.01% Tween-20, pH to 8.0 accordingly. Human full-length active C-terminal FLAG-His-tag CTPS1 (UniProtKB—P17812, CTPS1[1-591]-[…] (CTPS1[1-591]-SEQ ID NO: 1)) may be obtained from Proteros biostructures GmbH. Human full length active C-terminal FLAG-His-Avi tagged CTPS2 (UniProtKB—Q9NRF8, CTPS2 [1-586]-[…] (CTPS2 [1-586]—SEQ ID NO: 2)) may be obtained from Harker Bio.
Human CTPS (1 or 2) protein may be prepared in 1× assay buffer to the final working protein concentration required for the reaction. A 2 uL volume per well of 2×CTPS (1 or 2) protein may be mixed with 40 nL of compound using acoustic (ECHO) delivery and incubated for 10 minutes at 25° C. Each isoform enzymatic reaction may be subsequently initiated by addition of 2 uL per well of a 2× substrate mix in assay buffer. For hCTPS1: ATP (0.3 mM), UTP (0.2 mM), GTP (0.07 mM) and L-glutamine (0.1 mM). For hCTPS2: ATP (0.1 mM), UTP (0.04 mM), GTP (0.03 mM) and L-glutamine (0.1 mM). Each mixture may be incubated for an appropriate amount of time per isoform within the determined linear phase of the reaction at 25° C. A 80 uL volume of stop solution (1% formic acid with 0.5 uM ^13C9-^15N3-CTP in H2O) may be added and the plate immediately heat-sealed and centrifuged for 10 minutes at 4,000 rpm. Following centrifugation, plates may be loaded onto the Agilent RapidFire microfluidic solid phase extraction system coupled to an API4000 triple quadrupole mass spectrometer (RF/MS) for analysis.
In all cases, the enzyme converts UTP to CTP. Highly specific and sensitive multiple reaction monitoring (MRM) MS methods may be optimised for the detection of the enzymatic reaction product, CTP, and the stable isotope labelled product standard ^13C9-^15N3-CTP. Readout for data analysis may be calculated as the ratio between the peak area of the product CTP and the internal standard ^13C9-^15N3-CTP. For data reporting, the following equation may be used:
(R=ratio/readout, P=product signal area, IS=internal standard signal area)
For each screening plate, the means of the negative (DMSO) and positive control values were used for the calculation of the respective assay window (S/B) and Z′ values. The median of the respective control values was used for calculation of percent inhibition according to the following equation:
(I=Inhibition, Rneq=median of negative control readout values, Rpos=median of positive control readout values, Rsample=sample readout value)
Percentage inhibition was then plotted against compound concentration, and the 50% inhibitory concentration (IC50) was determined from the resultant concentration-response curve.
Fold selectivity between CTPS1 and CTPS2 was subsequently calculated according to the following equation: […]

Structure (SMILES) | Selectivity (fold selectivity between CTPS1 and CTPS2)
CC(C)(C(=O)Nc1ccc(-c2cccnc2)cc1)c1ccnc(NS(=O)(=O)C2CC2)n1 [P59, 2-(2-(cyclopropanesulfonamido)pyrimidin-4-yl)-2-methyl-N-(4-(pyridin-3-yl)phenyl)propanamide] | + (2-30 fold (+))
CCOc1cncc(-c2ccc(NC(=O)C(C)(C)c3ccnc(NS(=O)(=O)C4CC4)n3)cc2)n1 [P65, 2-(2-(cyclopropanesulfonamido)pyrimidin-4-yl)-N-(4-(6-ethoxypyrazin-2-yl)phenyl)-2-methylpropanamide] | ++ (>30-60 fold (++))
CCOc1cncc(-c2ccc(NC(=O)C(C)(C)c3nc(NS(=O)(=O)C4CC4)ncc3F)cc2)n1 [P68, 2-(2-(cyclopropanesulfonamido)-5-fluropyrimidin-4-yl)-N-(4-(9-ethoxypyrazin-2-yl)phenyl)-2-methylpropanamide] | ++ (>30-60 fold (++))
CCOc1cncc(-c2ccc(NC(=O)C(C)(C)c3nc(NS(=O)(=O)C4CC4)ncc3C)cc2)n1 [P70, 2-(2-(cyclopropanesulfonamido)-5-methylpyrimidin-4-yl)-N-(4-(6-ethoxypyrazin-2-yl)phenyl)-2-methylpropanamide] | + (2-30 fold (+))
CCOc1cncc(-c2ccc(NC(=O)C(C)(C)c3ccnc(NS(=O)(=O)CC)n3)cc2)n1 [P74, N-(4-(6-ethoxypyrazin-2-yl)phenyl)-2-(2-(ethylsulfonamido)pyrimidin-4-yl)-2-methylpropanamide] | ++ (>30-60 fold (++))
CCOc1cncc(-c2ccc(NC(=O)C(C)(C)c3ccnc(NS(C)(=O)=O)n3)nc2)n1 [P76, N-(5-(6-ethoxypyrazin-2-yl)pyridin-2-yl)-2-methyl-2-(2-(methylsulfonamido)pyrimidin-4-yl)propanamide] | ++ (>30-60 fold (++))
CCOc1cncc(-c2ccc(NC(=O)C3(c4ccnc(NS(=O)(=O)C5CC5)n4)CC3)cc2)n1 [P83, 1-(2-(cyclopropanesulfonamido)pyrimidin-4-yl)-N-(4-(6-ethoxypyrazin-2-yl)phenyl)cyclopropanecarboxamide] | +++ (>60 fold (+++))
CCC(C(=O)Nc1ccc(-c2cncc(C(F)(F)F)n2)cn1)c1ccnc(NS(=O)(=O)C2CC2)n1 (stereo not shown) [P87, 2-(2-(cyclopropanesulfonamido)pyrimidin-4-yl)-N-(5-(6-(trifluoromethyl)pyrazin-2-yl)pyridin-2-yl)butanamide] | ++ (>30-60 fold (++))
CCOc1cncc(-c2ccc(NC(=O)C(CC)c3ccnc(NS(=O)(=O)C4CC4)n3)nc2)n1 (stereo not shown) [P88, 2-(2-(cyclopropanesulfonamido)pyrimidin-4-yl)-N-(5-(6-ethoxypyrazin-2-yl)pyridin-2-yl)butanamide] | +++ (>60 fold (+++))
CCC(C(=O)Nc1ccc(-c2cncc(OC(C)C)n2)cn1)c1ccnc(NS(=O)(=O)C2CC2)n1 (stereo not shown) [P89, 2-(2-(cyclopropanesulfonamido)pyrimidin-4-yl)-N-(5-(6-isopropoxypyrazin-2-yl)pyridin-2-yl)butanamide] | +++ (>60 fold (+++))
CCC(C(=O)Nc1ccc(-c2cncc(OC)n2)cc1F)c1ccnc(NS(=O)(=O)C2CC2)n1 (stereo not shown) [P95, 2-(2-(cyclopropanesulfonamido)pyrimidin-4-yl)-N-(2-fluoro-4-(6-methoxypyrazin-2-yl)phenyl)butanamide] | + (2-30 fold (+))
CCOc1cncc(-c2ccc(NC(=O)C(CC)c3ccnc(NS(=O)(=O)C4CC4)n3)c(F)c2)n1 (stereo not shown) [P96, 2-(2-(cyclopropanesulfonamido)pyrimidin-4-yl)-N-(4-(6-ethoxypyrazin-2-yl)-2-fluorophenyl)butanamide] | + (2-30 fold (+))
CCC(C(=O)Nc1ccc(-c2cncc(OCC(F)(F)F)n2)cc1F)c1ccnc(NS(=O)(=O)C2CC2)n1 (stereo not shown) [P98, 2-(2-(cyclopropanesulfonamido)pyrimidin-4-yl)-N-(2-fluoro-4-(6-(2,2,2-trifluoroethoxy)pyrazin-2-yl)phenyl)butanamide] | +++ (>60 fold (+++))
CCC(C(=O)Nc1ccc(-c2cncc(C(F)(F)F)n2)cc1)c1ccnc(NS(=O)(=O)C2CC2)n1 (stereo not shown) [P103, 2-(2-(cyclopropanesulfonamido)pyrimidin-4-yl)-N-(4-(6-(trifluoromethyl)pyrazin-2-yl)phenyl)butanamide] | + (2-30 fold (+))
CCOc1cncc(-c2ccc(NC(=O)C(CC)c3ccnc(NS(=O)(=O)C4CC4)n3)cc2)n1 (stereo not shown) [P105, 2-(2-(cyclopropanesulfonamido)pyrimidin-4-yl)-N-(4-(6-ethoxypyrazin-2-yl)phenyl)butanamide] | ++ (>30-60 fold (++))
CCC(C(=O)Nc1ccc(-c2cncc(OCC(F)(F)F)n2)cc1)c1ccnc(NS(=O)(=O)C2CC2)n1 (stereo not shown) [P108, 2-(2-(cyclopropanesulfonamido)pyrimidin-4-yl)-N-(4-(9-(2,2,2-trifluoroethoxy)pyrazin-2-yl)phenyl)butanamide] | +++ (>60 fold (+++))
CCOc1cncc(-c2ccc(NC(=O)C(CCOC)c3ccnc(NS(=O)(=O)C4CC4)n3)cc2)n1 (stereo not shown) [P110, 2-(2-(cyclopropanesulfonamido)pyrimidin-4-yl)-N-(4-(9-ethoxypyrazin-2-yl)phenyl)-4-methoxypbutanamide] | ++ (>30-60 fold (++))
CCOc1cncc(-c2ccc(NC(=O)C3(c4ccnc(NS(=O)(=O)C5CC5)n4)CCOCC3)nc2)n1 [P115, 4-(2-(Cyclopropanesulfonamido)pyrimidin-4-yl)-N-(5-(6-ethoxypyrazin-2-yl)pyridin-2-yl)tetrahydro-2H-pyran-4-carboxamide] | +++ (>60 fold (+++))
CCOc1cncc(-c2ccc(C(=O)NCc3ccnc(NS(=O)(=O)C4CC4)n3)cc2)n1 [P118, N-((2-(cyclopropanesulfonamido)pyrimidin-4-yl)methyl)-4-(6-ethoxypyrazin-2-yl)benzamide] | +++ (>60 fold (+++))
CC(C)(C(=O)Nc1ccc(-c2cncc(C3CC3)n2)cn1)c1ccnc(NS(=O)(=O)C2CC2)n1 [P125, 2-(2-(cyclopropanesulfonamido)pyrimidin-4-yl)-N-(5-(6-cyclopropylpyrazin-2-yl)pyridin-2-yl)-2-methylpropanamide] | ++ (>30-60 fold (++))
CC(C)(C(=O)Nc1ccc(-c2cncc(C3CC3)n2)cc1F)c1ccnc(NS(=O)(=O)C2CC2)n1 [P128, 2-(2-(cyclopropanesulfonamido)pyrimidin-4-yl)-N-(4-(9-cyclopropylpyrazin-2-yl)-2-fluorophenyl)-2-methylpropanamide] | + (2-30 fold (+))
CC(C)c1cncc(-c2ccc(NC(=O)C(C)(C)c3ccnc(NS(=O)(=O)C4CC4)n3)cc2)n1 [P132, 2-(2-(cyclopropanesulfonamido)pyrimidin-4-yl)-N-(4-(6-isopropylpyrazin-2-yl)phenyl)-2-methylpropanamide] | ++ (>30-60 fold (++))
